Where two headings read alike, the source gives them in different places.
Legend:
[1] = tested on: normal human epidermal keratinocytes; experiment: Neutral red uptake bioassay using normal human epidermal keratinocytes; assay type: cell-based; conditions: for HuLC50: preliminarily estimated concentration for half-maximal toxicity, neutral red uptake, normal human epidermal keratinocytes
Description: A neutral red uptake bioassay using normal human epidermal keratinocytes was then conducted to preliminarily estimate the toxicity (HuLC50) of dipyridoxylamine relative to pyridoxamine. The bioassay was conducted according to standard protocols. (Borenfreund et al., J. Tissue Culture Methods 9:7-9, 1984; Heimann, et al., Cancer Res. 43:4856-4862, 1983; Shopsis et al., in “Alternative Methods in Toxicology,” Vol. 6, AM Goldberg (Ed), Mary Ann Liebert, Inc., N.Y., p. 253-263, 1988) The preliminarily estimated concentration for half-maximal toxicity was then divided by the half maximal inhibition of post-Amadori AGE formation to derive a therapeutic index ratio.

[2] = tested on: conversion of Amadori compounds to post Amadori advanced glycation endproducts (bovine serum albumin glycated by ribose); experiment: Interrupted glycation: post-Amadori AGE formation of bovine serum albumin by ribose; assay type: biochemical
Description: FIG. 2 is graph depicting the effect of dipyridoxylamine (BST-4500) on post-Amadori AGE formation during interrupted glycation of bovine serum albumin by ribose. Modification with ribose was done at 37° C. in 0.2 M phosphate buffer of pH 7.5 containing 0.02% sodium azide. The solutions were kept in capped tubes and opened only to remove timed aliquots that were immediately frozen for later carrying out the various analyses. “Interrupted glycation” experiments were carried out by first incubating protein with the ribose at 37° C. for 8 or 24 h, followed by immediate and extensive dialysis against frequent cold buffer changes at 4° C. The samples were then reincubated by quickly warming to 37° C. in the absence of external ribose. Aliquots were taken and frozen at various intervals for later analysis.
The interrupted glycation method for following post-Amadori kinetics of AGE formation allows for the rapid quantitative study of “late” stages of the glycation reaction. Importantly, this method allows for inhibition studies that are free of pathways of AGE formation which arise from glycoxidative products of free sugar or Schiff base (Namiki pathway).
In comparison, in a similar experiment, pyridoxamine inhibited the conversion of Amadori compounds to post Amadori advanced glycation endproducts with a half-maximal inhibitory concentration of approximately 3 mM. Thus, the post-Amadori-inhibitory activity of dipyridoxylaminc is approximately 750-fold greater than that of pyridoxamine.

[3] = half maximal inhibition of post-Amadori AGE formation, read-out: IC50

`Cc1ncc(CO)c(CNCc2c(CO)cnc(C)c2O)c1O` [Dipyridoxylamine] was tested, and the “toxicity relative to pyridoxamine” value ([1]; neutral red uptake bioassay, in words) was “mildly more toxic than pyridoxamine”, the HuLC50 [1] was 1.8 mM and the IC50 [2, 3] was 0.004 mM. The IC50 ([2]; interrupted glycation of BSA by ribose, 37° C., 0.2 M phosphate buffer pH 7.5, read-out: half-maximal inhibitory concentration for inhibiting the conversion of Amadori compounds to post Amadori advanced glycation endproducts) was about 0.004 mM and the “post-Amadori-inhibitory activity relative to pyridoxamine” value ([2]; ratio of half-maximal inhibitory concentrations, versus pyridoxamine) was “approximately 750 fold”.
`Cc1ncc(CO)c(CN)c1O` [Pyridoxamine, pyridoxamine, reference compound] showed a HuLC50 [1] of 16.7 mM, an IC50 [2, 3] of 3 mM and an IC50 ([2]; in a similar experiment (interrupted glycation), read-out: half-maximal inhibitory concentration for inhibiting the conversion of Amadori compounds to post Amadori advanced glycation endproducts) of about 3 mM.

From patent publication US6342500B1, “Post-Amadori inhibitors of Advanced Glycation reactions” (Kansas University Medical Center, priority 1999, dated 2002)
